Structures are written as SMILES. Bounds are passed on as bounds.

The subject of this assay is PC-3 cells. Kind of assay: PC-3 Oxygen Rate Consumption (OCR) Assay. In kind it is cell-based. The settings on record: Homo sapiens, 0.05 h, medium with 2% FBS, OCR at 3-min post-injection normalized to % increase over DMSO-treated cells, concentration for half-maximal OCR increase, read-out: EC50-PC3-OCR-FBS-3min. Here is the method: PC-3 Oxygen Rate Consumption (OCR) Assay Procedure:
One day before the assay, PC-3 cells were seeded at 2.5×10^4 cells/160 μL/well in a 96-well XFe96 cell plate, part of a FlexPak containing a cell plate and a cartridge (Agilent, Sunnyvale, CA). The cells were incubated overnight at 37° C. in a 5% CO2 and 90% humidity incubator with F12K culture medium (ThermoFisher Scientific/Invitrogen, Grand Island, NY) containing 10% FBS and 1% penicillin/streptomycin. On the day of the assay, the cells were washed twice with 300 µL/well Medium A [XF assay medium (Agilent) supplemented 10 mM glucose, 1 mM pyruvate, and 2% fetal bovine serum (FBS)], and incubated with 175 µL/well Media A for 1 hr in a 37° C., non-CO2 incubator prior to the measurement of cellular respiration. Compounds of interests were prepared in 1:2 serial dilutions with 100% DMSO and then further diluted into 8× working stock with Media A prior to being loaded to Injection Port A on a XFe96 Analyzer (Agilent). Six replicates were used for each treatment. The cartridge was calibrated in the XFe96 Analyzer 30 minute prior to the measurement of cellular respiration. Basal levels of OCR were measured three times, each using a “3-minute mixing/3-minute measurement” program. The compound effect was measured immediately after compound injection from Injection Port A, and OCR was monitored continuously 10 times, each time using a “1-minute mixing/2-minute measurement” program for a total of 30 minutes post compound injection. The level of OCR at 3-min post-injection was normalized to % increase over DMSO-treated cells. The concentration of compound required to reach the half-maximal OCR increase was defined as EC50 Table 2 contains PC3 OCR EC50 values for the compounds disclosed.
One may read the EC50 as the concentration that produces a half-maximal response. In the case of `CS(=O)(=O)Nc1ccc(C#N)cc1C(=O)NC12CCC(C(F)(F)F)(CC1)CC2` [Example 229, 5-cyano-2-(methylsulfonamido)-N-(4-(trifluoromethyl)bicyclo[2.2.2]octan-1-yl)benzamide], the EC50 is 4.42 µM.
As for `CC(C)(C)S(=O)(=O)Nc1cc(S(F)(F)(F)(F)F)ccc1C(=O)NC12CCC(C#N)(CC1)CC2` [Example 161, N-(4-cyanobicyclo[2.2.2]octan-1-yl)-2-((1,1-dimethylethyl)sulfonamido)-4-(pentafluoro-λ^6-sulfanyl)benzamide], the concentration for a half-maximal effect (EC50) worked out at 1.09 µM.
Next, `COc1ccc(S(=O)(=O)Nc2ccc(C(F)(F)F)cc2C(=O)NC23CCC(C#N)(CC2)CC3)cc1` [Example 121, N-(4-cyanobicyclo[2.2.2]octan-1-yl)-2-((4-methoxyphenyl)sulfonamido)-5-(trifluoromethyl)benzamide]: 2.26 µM; `CS(=O)(=O)Nc1ccc(S(=O)(=O)Nc2cc(C(F)(F)F)ccc2C(=O)NC23CC(C(F)(F)F)(C2)C3)cc1` [Example 107, 2-((4-(methylsulfonamido)phenyl)sulfonamido)-4-(trifluoromethyl)-N-(3-(trifluoromethyl)bicyclo[1.1.1]pentan-1-yl)benzamide]: 30.6 µM; `N#CC12CCC(NC(=O)c3cc(C(F)(F)F)ccc3NS(=O)(=O)N3CCC3)(CC1)CC2` [Example 179, 2-(azetidine-1-sulfonamido)-N-(4-cyanobicyclo[2.2.2]octan-1-yl)-5-(trifluoromethyl)benzamide]: 8.84 µM.
On to `CS(=O)(=O)Nc1cc(F)ccc1C(=O)NC12CCC(C#N)(CC1)CC2` [Example 198, N-(4-cyanobicyclo[2.2.2]octan-1-yl)-4-fluoro-2-(methylsulfonamido)benzamide], for which the EC50 is at least 200 µM.
`CC(C)S(=O)(=O)Nc1cc(C(F)(F)F)ccc1C(=O)NC12CC(c3ccccc3)(C1)C2` [Example 54, 2-((1-methylethyl)sulfonamido)-N-(3-phenylbicyclo[1.1.1]pentan-1-yl)-4-(trifluoromethyl)benzamide]: the EC50 worked out at 1.22 µM.
Regarding `CN(C)S(=O)(=O)Nc1ccc(C(F)(F)F)cc1C(=O)NC12CC(C(F)(F)F)(C1)C2` [Example 189, 2-((N,N-dimethylsulfamoyl)amino)-5-(trifluoromethyl)-N-(3-(trifluoromethyl)bicyclo[1.1.1]pentan-1-yl)benzamide], the EC50 turned out to be 0.511 µM.
Regarding `CS(=O)(=O)Nc1ccc(C(F)(F)F)cc1C(=O)NC12C3C4C1C1C2C3C41C#N` [Example 187, N-((2r,3R,4r,5S)-4-cyanocuban-1-yl)-2-(methylsulfonamido)-5-(trifluoromethyl)benzamide], the EC50 was determined as 11.5 µM.
`COC12CC(NC(=O)c3cc(C(F)(F)F)ccc3NS(=O)(=O)C(C)(C)C)(C1)C2` [Example 169, 2-((1,1-dimethylethyl)sulfonamido)-N-(3-methoxybicyclo[1.1.1]pentan-1-yl)-5-(trifluoromethyl)benzamide]: the EC50 worked out at 11.4 µM.
In the case of `CC(C)(C)S(=O)(=O)Nc1ccc(C#N)cc1C(=O)NC12CC(c3ccccc3)(C1)C2` [Example 96, 5-cyano-2-((1,1-dimethylethyl)sulfonamido)-N-(3-phenylbicyclo[1.1.1]pentan-1-yl)benzamide], the EC50 worked out at 1.28 µM.
For the molecule `CN(C)c1ccc(S(=O)(=O)Nc2cc(C(F)(F)F)ccc2C(=O)NC23CC(C(F)(F)F)(C2)C3)cc1` [Example 102, 2-((4-(dimethylamino)phenyl)sulfonamido)-4-(trifluoromethyl)-N-(3-(trifluoromethyl)bicyclo[1.1.1]pentan-1-yl)benzamide], the concentration for a half-maximal effect (EC50) stood at 2.42 µM.
In the case of `O=C(NC12CC(C(F)(F)F)(C1)C2)c1cc(C(F)(F)F)ccc1NS(=O)(=O)C1CCS(=O)(=O)CC1` [Example 162, 2-((1,1-dioxidotetrahydro-2H-thiopyran)-4-sulfonamido)-5-(trifluoromethyl)-N-(3-(trifluoromethyl)bicyclo[1.1.1]pentan-1-yl)benzamide], the half-maximal effective concentration (EC50) was found to be 34.1 µM.
Next, `CC(C)(C)c1ccc(S(=O)(=O)Nc2cc(S(C)(=O)=O)ccc2C(=O)NC23CC(C(F)(F)F)(C2)C3)cc1` [Example 16, 2-((4-(tert-butyl)phenyl)sulfonamido)-4-(methylsulfonyl)-N-(3-(trifluoromethyl)bicyclo[1.1.1]pentan-1-yl)benzamide]: 5.55 µM.
Then `CS(=O)(=O)Oc1ccc(S(=O)(=O)Nc2cc(C(F)(F)F)ccc2C(=O)NC23CC(C(F)(F)F)(C2)C3)cc1` [Example 103, 4-(N-(5-(trifluoromethyl)-2-((3-(trifluoromethyl)bicyclo[1.1.1]pentan-1-yl)carbamoyl)phenyl)sulfamoyl)phenyl methanesulfonate], with 1.88 µM; and `CC(C)S(=O)(=O)Nc1ccc(C(F)(F)F)cc1C(=O)NC12CC(C(F)(F)F)(C1)C2` [Example 69, 2-((1-methylethyl)sulfonamido)-5-(trifluoromethyl)-N-(3-(trifluoromethyl)bicyclo[1.1.1]pentan-1-yl)benzamide], with 0.518 µM; and `N#CC12CCC(NC(=O)c3cc(C(F)(F)F)ccc3NS(=O)(=O)C3CC3)(CC1)CC2` [Example 125, N-(4-cyanobicyclo[2.2.2]octan-1-yl)-2-(cyclopropanesulfonamido)-5-(trifluoromethyl)benzamide], with 12.4 µM.
Next, `CS(=O)(=O)Nc1c(C(=O)NC23CCC(C#N)(CC2)CC3)ccc2ccccc12` [Example 219, N-(4-cyanobicyclo[2.2.2]octan-1-yl)-1-(methylsulfonamido)-2-naphthamide]: at least 200 µM; `CS(=O)(=O)Nc1ccc(C(F)(F)F)cc1C(=O)NC12CCC(F)(CC1)CC2` [Example 82, N-(4-fluorobicyclo[2.2.2]octan-1-yl)-2-(methylsulfonamido)-5-(trifluoromethyl)benzamide]: 6.32 µM; `CS(=O)(=O)Nc1ccc(Cl)cc1C(=O)NC12CCC(C(F)(F)F)(CC1)CC2` [Example 208, 5-chloro-2-(methylsulfonamido)-N-(4-(trifluoromethyl)bicyclo[2.2.2]octan-1-yl)benzamide]: 10.6 µM.
Consider `N#CC12CCC(NC(=O)c3cc(C(F)(F)F)ccc3NS(=O)(=O)Cc3ccccc3)(CC1)CC2` [Example 196, N-(4-cyanobicyclo[2.2.2]octan-1-yl)-2-((phenylmethyl)sulfonamido)-5-(trifluoromethyl)benzamide], for which the EC50 turned out to be 1.38 µM.
Then `CS(=O)(=O)CCS(=O)(=O)Nc1cc(OC(F)(F)F)ccc1C(=O)NC12CCC(C(F)(F)F)(CC1)CC2` [Example 248, 2-((2-(methylsulfonyl)ethyl)sulfonamido)-4-(trifluoromethoxy)-N-(4-(trifluoromethyl)bicyclo[2.2.2]octan-1-yl)benzamide], with 5.7 µM; and `CC(C)(C)c1ccc(S(=O)(=O)Nc2cc(F)ccc2C(=O)NC23CC(C(F)(F)F)(C2)C3)cc1` [Example 3, 2-((4-(tert-butyl)phenyl)sulfonamido)-4-fluoro-N-(3-(trifluoromethyl)bicyclo[1.1.1]pentan-1-yl)benzamide], with 0.785 µM.
Then `CS(=O)(=O)c1ccc(S(=O)(=O)Nc2ccc(Cl)cc2C(=O)NC23CC(c4ccccc4)(C2)C3)cc1` [Example 91, 5-chloro-2-((4-(methylsulfonyl)phenyl)sulfonamido)-N-(3-phenylbicyclo[1.1.1]pentan-1-yl)benzamide], with 2.97 µM; and `N#CC12CCC(NC(=O)c3ccc(F)cc3NS(=O)(=O)CCC(F)(F)F)(CC1)CC2` [Example 134, N-(4-cyanobicyclo[2.2.2]octan-1-yl)-4-fluoro-2-((3,3,3-trifluoropropyl)sulfonamido)benzamide], with 2.68 µM.
Next, `CS(=O)(=O)Nc1ccc(S(F)(F)(F)(F)F)cc1C(=O)NC12CCC(C#N)(CC1)CC2` [Example 167, N-(4-cyanobicyclo[2.2.2]octan-1-yl)-2-(methylsulfonamido)-5-(pentafluoro-λ^6-sulfanyl)benzamide]: 5.88 µM; `Cc1ccc(C(=O)NC23CC(C(F)(F)F)(C2)C3)c(NS(=O)(=O)c2ccncc2)c1` [Example 65, 4-methyl-2-(pyridine-4-sulfonamido)-N-(3-(trifluoromethyl)bicyclo[1.1.1]pentan-1-yl)benzamide]: 21.8 µM.
In the case of `N#Cc1ccc(C(=O)NC23CC(C(F)(F)F)(C2)C3)c(NS(=O)(=O)N2CCC2)c1` [Example 247, 2-(azetidine-1-sulfonamido)-4-cyano-N-(3-(trifluoromethyl)bicyclo[1.1.1]pentan-1-yl)benzamide], the EC50 was found to be 4.79 µM.
`O=C(NC12CCC(C(F)(F)F)(CC1)CC2)c1cc(Cl)ccc1NS(=O)(=O)C1CCS(=O)(=O)CC1` [Example 207, 5-chloro-2-((1,1-dioxidotetrahydro-2H-thiopyran)-4-sulfonamido)-N-(4-(trifluoromethyl)bicyclo[2.2.2]octan-1-yl)benzamide]: the concentration giving a half-maximal response (EC50) came out at 8.12 µM.

The values above are taken from patent US12049439B2 (OrsoBio, Inc., priority 2018, dated 2024).
